In experiment [1] the test system is HL-60. The experiment is described as follows: Cytotoxicity against human HL60 cells after 72 hrs by MTT assay. The class given is functional. To be noted: HL-60, 72 h, read-out: ED50. On the technique in general: Formazan colour is commonly taken as a measure of viable cells.
Experiment [2] relates to P388. The experiment in a line: Cytotoxicity against mouse P388 cells after 72 hrs by MTT assay. The class given is functional. To be noted: P388, 72 h, read-out: ED50.

Converted amounts (≈) assume the structure as drawn.

Take `CC[C@H](C)[C@@H]1NC(=O)c2csc(n2)[C@@H](C(C)C)NC(=O)[C@H]2N=C(O[C@@H]2C)[C@H](c2ccccc2)NC(=O)c2csc(n2)[C@@H](C(C)C)NC(=O)[C@H]2N=C1O[C@@H]2C`: the EC50 in experiment [1] was 12.8 µg/mL (≈ 16.5 µM); in experiment [2], 12.4 µg/mL (≈ 16 µM).

With `CC[C@H](C)[C@@H]1NC(=O)c2csc(n2)[C@@H](C(C)C)NC(=O)[C@H]2N=C(O[C@@H]2C)[C@H]([C@@H](C)CC)NC(=O)c2csc(n2)[C@@H](C(C)C)NC(=O)[C@H]2N=C1O[C@@H]2C` [ASCIDIACYCLAMIDE], the EC50 in experiment [1] came out at 33.5 µg/mL (≈ 44.3 µM); in experiment [2] it was 10.5 µg/mL (≈ 13.9 µM).

Values taken from ChEMBL document CHEMBL1777789, “The square conformation of phenylglycine-incorporated ascidiacyclamide is stabilized by CH/π interactions between amino acid side chains” (2011).
